Experimental data from US7745402B2, “Method of treating pancreatitis” (Lundbeck Inc., priority 2005, dated 2010).
d = 2'-deoxy (DNA); r = 2'-OH (RNA)

Experiments:
CDD-induced pancreatitis = assay: Transfer of hemin/siRNA pretreated peritoneal cells into CDD-fed mice, histologic scoring; type: in vivo; conditions: recipients of peritoneal cells from hemin + siRNA injected mice; 2.5 d CDD; mean±SD, n=5-6/group
Protocol: (A,B) Peritoneal cells were isolated from hemin-treated mice that were also injected intraperitoneally on alternate days with saline (−), HO-1 siRNA (construct #1 and #2), or scramble control (Sc) siRNA. The peritoneal cells were then used to examine HO-1 and HO-2 levels by immunoblotting. (C,D) Peritoneal cells were harvested from hemin/construct #2 HO-1 siRNA or hemin/scrambled siRNA injected mice then transferred into naive recipient littermates followed by immediate initiation of CDD feeding. At 2.5 d of CDD feeding, pancreata were collected for histologic scoring. Data for histology score are presented as mean±SD (n=5-6/group), and are 6.4±1.7 (scrambled) and 12.7±4.5 (HO-1 siRNA). […]
Hemin pretreated peritoneal cell transfer into CDD-fed mice. […] Mice were sacrificed after 2.5 d of CDD feeding, followed by isolation of the pancreata.(for histological and fluorescence staining) and blood. […] The severity of pancreatitis was scored using established histological criteria that assigned individual numerical scores (1=mild, 2=moderate, 3=severe) to edema, inflammation, hemorrhage; and alternate scores for parenchymal necrosis (3=focal, 5=sublobular, and 7=lobular). […]
HO-1 siRNA and hemin pretreated cell transfer. […] After 7 days, peritoneal cells were harvested and analyzed by immunoblotting using antibodies to HO-1/2. […]

HO-1 = HO-1 knock-down in vivo by siRNA, immunoblot of peritoneal cells; parameters: species or system mice; conditions: siRNA 2 mg/kg i.p. 3×, hemin on intervening days
Protocol: (A,B) Peritoneal cells were isolated from hemin-treated mice that were also injected intraperitoneally on alternate days with saline (−), HO-1 siRNA (construct #1 and #2), or scramble control (Sc) siRNA. The peritoneal cells were then used to examine HO-1 and HO-2 levels by immunoblotting. (C,D) Peritoneal cells were harvested from hemin/construct #2 HO-1 siRNA or hemin/scrambled siRNA injected mice then transferred into naive recipient littermates followed by immediate initiation of CDD feeding. At 2.5 d of CDD feeding, pancreata were collected for histologic scoring. Data for histology score are presented as mean±SD (n=5-6/group), and are 6.4±1.7 (scrambled) and 12.7±4.5 (HO-1 siRNA). (E) Pancreata from panels C,D were double stained using antibodies to F4/80 and HO-1 (scale bar=20 μm).
HO-1 siRNA and hemin pretreated cell transfer. Mice were injected i.p. every other day (3 total injections) with either saline or with two HO-1 siRNA constructs (2 mg/kg body weight), or with a scrambled siRNA sequence. Hemin was injected in the intervening days (an additional 3 injections). After 7 days, peritoneal cells were harvested and analyzed by immunoblotting using antibodies to HO-1/2. […] The siRNAs were synthesized by Dharmacon Research Inc. (Lafayette, Colo.) and tested previously. Zhang, X., Shan, P., Jiang, D., Noble, P. W., Abraham, N. G., Kappas, A., and Lee, P. J. 2004. […]

scrambled: nonspecific siRNA scrambled duplex: 5′-GCGCGCUUUGUAGGAUUCGdTdT-3′ (sense), 5′-CGAAUCCUACAAAGCGCGCdTdT-3′ (antisense) (sense GCGCGCUUUGUAGGAUUCGTT; antisense CGAAUCCUACAAAGCGCGCTT; sugars from the 5' end r19 d2, backbone not given here)
histology score (CDD-induced pancreatitis): 6.4±1.7

HO-1 siRNA: HO-1 siRNA construct #2: 5′-GCCACACAGCACUAUGUAAdTdT-3′ (sense), 5′-UUACAUAGUGCUGUGUGGCdTdT-3′ (antisense) (sense GCCACACAGCACUAUGUAATT; antisense UUACAUAGUGCUGUGUGGCTT; chemistry not fully specified)
histology score (CDD-induced pancreatitis): 12.7±4.5 | HO-1 level in peritoneal cells (HO-1): significant inhibition of HO-1
